From patent publication US20030228675A1, “ATM related kinase ATX, nucleic acids encoding same and methods of use” (priority 2002, published 2003)

Legend:
Assay type in all cases: cell-based, human
p53 = experiment: Stress-induced p53 Ser-15 phosphorylation and p53 accumulation by immunoblotting
Experimental: To prepare recombinant HA-tagged ATX and ATM proteins, HEK 293T cells were plated onto 60-mm dishes (9×10^5 cells per dish), and were transfected with 5 μg pcDNA3.1 (empty vector), HA-ATXWT, HA-ATXKI, or HA-ATMWT plasmid DNAS. Transfections were performed with the Fugene 6 transfection reagent (Roche), according to the manufacturer's instructions. For NMD assays (see Example 9, below), U2OS cells were seeded onto 100 mm dishes (1×10^6 cells per dish). After 20 h, cells were transfected with 1.5 μg of pmCMV-Gl test plasmid, either Norm or 39Ter (Ishigaki et al., 2001); 1.5 μg of phCMV-MUP reference plasmid (Ishigaki et al., Cell 106:607-617 (2001)); and 7 μg of empty plasmid (pcDNA 3.1), plasmids encoding HA-ATMWT, HA-ATMKI, HA-ATXWT or HA-ATXKI. For antisense transfection experiments, U2OS cells were seeded onto 60 mm dishes (1×10^5 cells per dish) in complete medium supplemented with penicillin/streptomycin. After 30 h, cells were either mock transfected or transfected with sense (S) or antisense (AS) phosphorothioate oligonucleotides (Genset Oligos, La Jolla, Calif.). The S oligonucleotide spans ATX nucleotides 210-229 (5′-[…]-3′), and the AS oligonucleotide is complementary to this sequence (5′-[…]-3′). The cells were transfected with oligonucleotides at final concentrations of 8 μg/ml, with Fugene 6:DNA ratio of 1.6:1. Forty-eight hours after transfection, dishes were exposed to IR, UV-B, or 5-FU, and then harvested for immunoblotting, cell-cycle distribution, or cell survival assays. To examine ATX protein levels in oligonucleotide-treated cells, whole cell extracts were resolved by SDS-PAGE and immunoblotted with α-ATX Ab-1. When oligonucleotide-transfected cells were used for NMD assays, U2OS cells were seeded in culture dishes as described above. The cells were transfected using the Fugene reagent, with 1.5 μg of pmCMV-Gl test plasmid, 0.7 μg of phCMV-MUP reference plasmid, and 24 μg of S or AS oligonucleotide.
A major mediator of stress-induced signaling in mammalian cells is the tumor suppressor protein, p53 (Ko and Prives, Genes and Development 10:1054-1072, (1996); Ryan et al., Curr. Opin. Cell Biol. 13:332-337 (2001)). ATX phosphorylates p53 on Ser-15 (FIG. 1C), a site implicated in the regulation of p53 stability and transcriptional activity (Dumaz and Meek, Curr. Opin. Cell Biol. 13:225-231 (1999); Zhang and Xiong, Science 292:1910-1915 (2001)). Therefore, the possibility that these two proteins are functionally linked during cellular stress responses was investigated. U2OS cells were transiently transfected with a HA-ATXWT or HA-ATXKI expression plasmid, together with a GFP-encoding plasmid to allow for FACS-based enrichment of the transfected cells. The GFP+ cells were then examined for IR-induced stabilization of p53, as well as for specific phosphorylation of this protein on Ser-15. […] In contrast, overexpression of ATXWT enhanced both of these responses in cells exposed to IR.
The recognition of UV light-induced DNA damage occurs primarily during S phase, when pyrimidine dimers and other bulky lesions interfere with replication fork progression (Friedberg, DNA Repair and Mutagenesis (Washington, D.C., ASM Press) (1995); Lindahl and Wood, Cell 103:1121-1131 (1999)).
In order to further define the potential linkage between DNA replicational stress and ATX, the response of AS-treated cells to 5-fluorouracil (5-FU), an S-phase specific cytotoxic agent was examined (Danenberg et al., Seminars in Oncology 26:621-631 (1999); Grem, Investigational New Drugs 18:299-313 (2000)).
Changes in phosphorylation at Ser-15 are typically accompanied by alterations in the expression of the p53 protein, which complicates the interpretation of results obtained by immunoblotting of whole cell extracts with phospho-Ser-15-specific antibodies. […]

[1] = system: NMD of the Ter-containing β-globin mRNA; experiment: NMD assay, β-globin Ter mRNA by RT-PCR; conditions: U2OS, reduced endogenous ATX expression
Experimental: To prepare recombinant HA-tagged ATX and ATM proteins, HEK 293T cells were plated onto 60-mm dishes (9×10^5 cells per dish), and were transfected with 5 μg pcDNA3.1 (empty vector), HA-ATXWT, HA-ATXKI, or HA-ATMWT plasmid DNAS. Transfections were performed with the Fugene 6 transfection reagent (Roche), according to the manufacturer's instructions. For NMD assays (see Example 9, below), U2OS cells were seeded onto 100 mm dishes (1×10^6 cells per dish). After 20 h, cells were transfected with 1.5 μg of pmCMV-Gl test plasmid, either Norm or 39Ter (Ishigaki et al., 2001); 1.5 μg of phCMV-MUP reference plasmid (Ishigaki et al., Cell 106:607-617 (2001)); and 7 μg of empty plasmid (pcDNA 3.1), plasmids encoding HA-ATMWT, HA-ATMKI, HA-ATXWT or HA-ATXKI. For antisense transfection experiments, U2OS cells were seeded onto 60 mm dishes (1×10^5 cells per dish) in complete medium supplemented with penicillin/streptomycin. […]
Total or nuclear RNA was isolated using Trizol (Invitrogen) or the NE-PER kit (Pierce), respectively. The extent of NMD was determined by using RT-PCR to quantitate the levels of Globin and MUP mRNA as described previously (Ishigaki et al., Cell 83: 1-4 (2001)), except that 21 cycles of PCR were used when analyzing the effects of ATX-specific S and AS oligonucleotides.

hChk2 = experiment: IR-dependent phosphorylation of hChk2; conditions: U2OS
Source text: Recent findings point toward ATM as a critical upstream regulator of the activity of the checkpoint kinase, hChk2, in IR-damaged cells (Ahn et al., Cancer Res. 60:5934-5936 (2000); Melchionna et al., Nat. Cell Biol. 2:762-765 (2000)). To determine whether ATX was also involved in hChk2 activation, the effect of AS oligonucleotide treatment on the IR-dependent phosphorylation of hChk2 was examined. […] Moreover, the differential effects of AS treatment on p53 expression versus hChk2 activation argue against the possibility that AS exposure leads to nonspecific inhibition of checkpoint signaling responses to IR-induced DNA damage.

U2OS cells = experiment: Cell-cycle distribution by flow cytometry
Experimental: Since p53 plays a central role in activation of the G1 checkpoint, and influences S, G2, and M checkpoints as well (Giaccia and Kastan, Genes & Development 12:2973-2983 (1998); Ko and Prives, supra, 1996), a functional deficiency of ATX might alter the cell-cycle arrest responses to IR and other genotoxic agents. To test this possibility, U2OS cells were pre-treated with S or AS oligonucleotides, exposed to IR, and cell-cycle distributions at 24 h post-irradiation were determined.
The G2 checkpoint inhibitor was added to the culture medium at 8 h prior to harvest for determination of cell-cycle distributions (FIG. 3E, left panel), and immunoblotting for ATX expression (right panel).

## 5′-AGCAAGCTCCCTCCTGTCTC-3′ (all phosphorothioate, sugars by position and methylation of C not given here) [AS oligonucleotide, ATX antisense phosphorothioate oligonucleotide complementary to ATX nucleotides 210-229]
p53; U2OS pretreated with proteasome inhibitor LLnV, UV
  stoichiometric increase in Ser-15 phosphorylation (phospho-Ser-15 to total p53) triggered by UV: effectively blocked
p53; U2OS, 5-FU exposure, versus S-treated cells
  level of p53 induction by 5-FU: identical to that observed in their S-treated counterparts
p53; U2OS, IR
  phosphorylation and stabilization of p53 induced by IR exposure: reduced both the phosphorylation and stabilization of p53
p53; U2OS, UV
  Ser-15 phosphorylation and p53 protein accumulation in UV-damaged cells: severely impaired both Ser-15 phosphorylation and p53 protein accumulation
[1]
  NMD activity: ATX expression is required for maximal NMD activity
hChk2
  IR-dependent phosphorylation of hChk2: retained the ability to phosphorylate hChk2
U2OS cells; 24 h post-irradiation
  cell-cycle distribution after IR exposure: arrested primarily in G2/M phase
U2OS cells; no IR
  subpopulation with <2N DNA content (apoptotic cells): increased subpopulation
U2OS cells; no IR, versus S oligonucleotide
  cell-cycle distribution in the absence of IR: reduction in the percentage of G1 phase cells, and a concomitant accumulation of G2/M phase cells
